# Reference: US11344507B2, “Topical compositions containing low molecular weight chitosan derivatives” (ALUMEND, LLC, priority 2019, dated 2022)
# Assays:
# [1] = tested on: three-dimensional human epidermal equivalents (EPI-200); experiment: In vitro Skin Irritation Test, SDS-induced irritation: MTT tissue viability; conditions: for Mean of viability (%): MTT after 42 hr post-exposure
# [2] = tested on: IL-1α secretion by three-dimensional human epidermal equivalents (EPI-200)
# [3] = tested on: IL-1α secretion by three-dimensional human epidermal equivalents (EPI-200); conditions: 24 h
# Method: Test materials (30 μl) were topically applied onto three-dimensional human epidermal equivalents (EPI-200 from MatTek, Ashland, Mass.), n=3 tissues per treatment group.
Compound,"Mean of viability (%) ([1]; 0.2% SDS, alone or applied after dried 1% OsC)","Mean of viability (%) ([1]; 0.4% SDS, alone or applied after dried 1% OsC)","Mean of viability (%) ([1]; 0.6% SDS, alone or applied after dried 1% OsC)","irritant classification by MTT assay (cut-off 50% viability) ([1]; 0.6% SDS, alone or combined with OsC)",Mean of viability (%) ([1]; test agent alone (OsC 1%; PC = 5% SDS)),irritant classification by IL-1α results [2],IL-1α (pg/mL) = Average IL1α (pg/mL) treated tissue minus Average IL1α (pg/mL) negative control [3]
"CCCCCCCCCCCCOS(=O)(=O)[O-].[Na+] [SDS, sodium dodecyl sulfate]",74.75%,73.04%,19.21%,irritant,3.12%,irritant,
"CC1=C(/C=C/C(C)=C/C=C/C(C)=C/CO)C(C)(C)CCC1 [Retinol, retinol]",,,,,,,98.301 pg/mL
